Source: PubChem BioAssay AID248 (DTP/NCI, 2004)
“And” between values parts separate entries of the source, which are not always exact repeats. Equal entries are not always repeated. Toxic doses and inconclusive results are not listed.

Tested on: L1210 leukemia ip in BDF1 mice, survival T/C
Experiment: NCI In Vivo Anticancer Drug Screen. Data for tumor model L1210 Leukemia (intraperitoneal) in B6D2F1 (BDF1) mice
Conditions: endpoint: mean survival time, higher = longer survival
How it was run: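 Value reflects the ratio of survival in compound-treated mice to survival in vehicle-treated controls, with both groups carrying the same transplanted tumor.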

[1] = dose: 100.0 mg/kg/injection, schedule: Q01DX001 (ip), vehicle: Klucel (hydroxypropylcellulose) (HPC)
[2] = dose: 100.0 mg/kg/injection, schedule: Q04DX003 (ip), vehicle: Klucel (hydroxypropylcellulose) (HPC)
[3] = dose: 200.0 mg/kg/injection, schedule: Q01DX001 (ip), vehicle: Klucel (hydroxypropylcellulose) (HPC)
[4] = dose: 200.0 mg/kg/injection, schedule: Q04DX003 (ip), vehicle: Klucel (hydroxypropylcellulose) (HPC)
[5] = dose: 400.0 mg/kg/injection, schedule: Q01DX001 (ip), vehicle: Klucel (hydroxypropylcellulose) (HPC)
[6] = dose: 400.0 mg/kg/injection, schedule: Q04DX003 (ip), vehicle: Klucel (hydroxypropylcellulose) (HPC)
[7] = dose: 100.0 mg/kg/injection, schedule: Q01DX009 (ip), vehicle: Klucel (hydroxypropylcellulose) (HPC)
[8] = dose: 200.0 mg/kg/injection, schedule: Q01DX009 (ip), vehicle: Klucel (hydroxypropylcellulose) (HPC)
[9] = dose: 6.25 mg/kg/injection, schedule: Q01DX009 (ip), vehicle: saline
[10] = dose: 12.5 mg/kg/injection, schedule: Q04DX003 (ip), vehicle: saline
[11] = dose: 25.0 mg/kg/injection, schedule: Q04DX003 (ip), vehicle: saline
[12] = dose: 50.0 mg/kg/injection, schedule: Q04DX003 (ip), vehicle: saline
[13] = dose: 400.0 mg/kg/injection, schedule: Q01DX009 (ip), vehicle: Klucel (hydroxypropylcellulose) (HPC)
[14] = dose: 100.0 mg/kg/injection, schedule: Q01DX009 (ip), vehicle: saline with Tween-80
[15] = dose: 200.0 mg/kg/injection, schedule: Q01DX009 (ip), vehicle: saline with Tween-80
[16] = dose: 100.0 mg/kg/injection, schedule: Q01DX001 (ip), vehicle: saline
[17] = dose: 200.0 mg/kg/injection, schedule: Q01DX001 (ip), vehicle: saline
[18] = dose: 400.0 mg/kg/injection, schedule: Q01DX001 (ip), vehicle: saline

## CC(C)N(C=O)c1ccc(C(=O)O)cc1
[1]
  T/C: 93 % of control
[2]
  T/C: 108 % of control
[3]
  T/C: 93 % of control
[4]
  T/C: 97 % of control
[5]
  T/C: 86 % of control
[6]
  T/C: 89 % of control

## Nc1nc(N)c2cc(CNc3ccc(C(=O)NC(C(=O)O)C(=O)O)cc3)ccc2n1
dose: 0.06 mg/kg/injection, schedule: Q01DX001 (ip), vehicle: saline
  T/C: 122 % of control
dose: 0.06 mg/kg/injection, schedule: Q01DX015 (ip), vehicle: carboxymethylcellulose (CMC)
  T/C: 123 % of control
dose: 0.25 mg/kg/injection, schedule: Q01DX015 (ip), vehicle: carboxymethylcellulose (CMC)
  T/C: 105 % of control
dose: 5.0 mg/kg/injection, schedule: Q01DX001 (ip), vehicle: carboxymethylcellulose (CMC)
  T/C: 157 % of control and 173 % of control
dose: 11.25 mg/kg/injection, schedule: Q01DX001 (ip), vehicle: carboxymethylcellulose (CMC)
  T/C: 91 % of control
dose: 20.0 mg/kg/injection, schedule: Q01DX001 (ip), vehicle: carboxymethylcellulose (CMC)
  T/C: 89 % of control

## CN(C)c1ncc(C(N)=O)cn1
[7]
  T/C: 97 % of control
[2]
  T/C: 100 % of control
[8]
  T/C: 108 % of control
[4]
  T/C: 96 % of control
[6]
  T/C: 110 % of control

## O=C(NC(=S)Nc1ccccc1)c1cccc(Br)c1
dose: 75.0 mg/kg/injection, schedule: Q01DX001 (ip), vehicle: carboxymethylcellulose (CMC)
  T/C: 90 % of control
dose: 150.0 mg/kg/injection, schedule: Q01DX001 (ip), vehicle: carboxymethylcellulose (CMC)
  T/C: 88 % of control
dose: 300.0 mg/kg/injection, schedule: Q01DX001 (ip), vehicle: carboxymethylcellulose (CMC)
  T/C: 96 % of control

## CN1CCN(C(c2ccccc2)c2ccc(Cl)cc2)CC1 (centres undefined)
[9]
  T/C: 102 % of control
dose: 12.5 mg/kg/injection, schedule: Q01DX009 (ip), vehicle: saline
  T/C: 92 % of control
[10]
  T/C: 95 % of control
dose: 25.0 mg/kg/injection, schedule: Q01DX009 (ip), vehicle: saline
  T/C: 94 % of control
[11]
  T/C: 111 % of control
dose: 50.0 mg/kg/injection, schedule: Q01DX009 (ip), vehicle: saline
  T/C: 100 % of control
[12]
  T/C: 90 % of control
dose: 100.0 mg/kg/injection, schedule: Q04DX003 (ip), vehicle: saline
  T/C: 97 % of control

## CC1=NN(c2ccc(S(=O)(=O)O)cc2)C(=O)/C1=C/c1ccc(Cl)cc1
dose: 100.0 mg/kg/injection, schedule: Q01DX009 (ip), vehicle: saline sonified
  T/C: 105 % of control
dose: 200.0 mg/kg/injection, schedule: Q01DX009 (ip), vehicle: saline sonified
  T/C: 100 % of control
dose: 200.0 mg/kg/injection, schedule: Q04DX003 (ip), vehicle: saline
  T/C: 102 % of control
dose: 400.0 mg/kg/injection, schedule: Q01DX009 (ip), vehicle: saline sonified
  T/C: 104 % of control
dose: 400.0 mg/kg/injection, schedule: Q04DX003 (ip), vehicle: saline
  T/C: 98 % of control

## Cc1ccc([N+](=O)[O-])cc1N1CCNC1=O
[7]
  T/C: 104 % of control
[2]
  T/C: 102 % of control
[8]
  T/C: 102 % of control
[4]
  T/C: 98 % of control
[13]
  T/C: 100 % of control
[6]
  T/C: 101 % of control

## CCC(C)COC(=O)Nc1cccc(Cl)c1 (centres undefined)
dose: 100.0 mg/kg/injection, schedule: Q01DX001 (ip), vehicle: other
  T/C: 102 % of control
dose: 200.0 mg/kg/injection, schedule: Q01DX001 (ip), vehicle: other
  T/C: 107 % of control
dose: 400.0 mg/kg/injection, schedule: Q01DX001 (ip), vehicle: other
  T/C: 105 % of control

## CC(=O)Nc1ccc2c(c1)OCO2
[14]
  T/C: 101 % of control
dose: 100.0 mg/kg/injection, schedule: Q04DX003 (ip), vehicle: saline with Tween-80
  T/C: 107 % of control
[15]
  T/C: 102 % of control
dose: 200.0 mg/kg/injection, schedule: Q04DX003 (ip), vehicle: saline with Tween-80
  T/C: 108 % of control
dose: 400.0 mg/kg/injection, schedule: Q04DX003 (ip), vehicle: saline with Tween-80
  T/C: 103 % of control

## COC(=O)CC(c1ccccc1)N1CCCC1 (centres undefined)
[16]
  T/C: 98 % of control
[17]
  T/C: 104 % of control
[18]
  T/C: 108 % of control

## COc1ccc(OC)c(/C=C(/C)[N+](=O)[O-])c1
dose: 50.0 mg/kg/injection, schedule: Q01DX009 (ip), vehicle: saline with Tween-80
  T/C: 109 % of control
[14]
  T/C: 109 % of control
[2]
  T/C: 97 % of control
[15]
  T/C: 109 % of control
[4]
  T/C: 108 % of control

## Cc1cccc(C)c1NC(=O)c1ccccc1Cl
[14]
  T/C: 104 % of control
[15]
  T/C: 97 % of control
dose: 400.0 mg/kg/injection, schedule: Q01DX009 (ip), vehicle: saline with Tween-80
  T/C: 104 % of control

## CN=C(c1ccc(NC(=O)c2ccc(C(=O)Nc3ccc(C(=NC)N(C)c4ccccc4)cc3)cc2)cc1)N(C)c1ccccc1
dose: 0.94 mg/kg/injection, schedule: Q01DX Z (ip), vehicle: saline
  T/C: 106 % of control
dose: 1.88 mg/kg/injection, schedule: Q01DX Z (ip), vehicle: saline
  T/C: 104 % of control
dose: 3.75 mg/kg/injection, schedule: Q01DX Z (ip), vehicle: saline
  T/C: 90 % of control

## CC(=O)CC(=O)Nc1cc(C)c(NC(=O)CC(C)=O)cc1C
[7]
  T/C: 95 % of control
[2]
  T/C: 98 % of control
[8]
  T/C: 93 % of control
[4]
  T/C: 96 % of control
[13]
  T/C: 103 % of control
[6]
  T/C: 98 % of control

## O=C(OCC(O)C(O)C(O)C(SCc1ccccc1)SCc1ccccc1)c1ccc([N+](=O)[O-])cc1 (centres undefined)
[16]
  T/C: 93 % of control
[17]
  T/C: 94 % of control
[18]
  T/C: 94 % of control

## CC(C)(C)c1ccc(S(=O)(=O)C/C=C/COc2ccccc2)cc1
dose: 75.0 mg/kg/injection, schedule: Q01DX009 (ip), vehicle: Klucel (hydroxypropylcellulose) (HPC)
  T/C: 91 % of control
dose: 150.0 mg/kg/injection, schedule: Q01DX009 (ip), vehicle: Klucel (hydroxypropylcellulose) (HPC)
  T/C: 98 % of control

## CCOC(=O)C(C(=O)OCC)=C(C#N)c1c[nH]c2ccccc12
[7]
  T/C: 103 % of control
[2]
  T/C: 104 % of control
[8]
  T/C: 96 % of control
[4]
  T/C: 95 % of control
[13]
  T/C: 92 % of control
[6]
  T/C: 96 % of control

## S=C(Nc1ccccc1)Nc1ccccc1S
[7]
  T/C: 97 % of control
[2]
  T/C: 98 % of control
[8]
  T/C: 92 % of control
[4]
  T/C: 95 % of control
[13]
  T/C: 92 % of control
[6]
  T/C: 95 % of control

## COC(=O)[CH](C[N+](=O)[O-])[Hg][Cl] (centres undefined)
dose: 3.12 mg/kg/injection, schedule: Q01DX009 (ip), vehicle: saline
  T/C: 94 % of control
[9]
  T/C: 94 % of control

## COC(=O)c1ccc([N+](=O)[O-])o1
dose: 50.0 mg/kg/injection, schedule: Q04DX002 (ip), vehicle: Klucel (hydroxypropylcellulose) (HPC)
  T/C: 104 % of control
[7]
  T/C: 93 % of control
dose: 100.0 mg/kg/injection, schedule: Q04DX002 (ip), vehicle: Klucel (hydroxypropylcellulose) (HPC)
  T/C: 90 % of control
[8]
  T/C: 111 % of control
dose: 200.0 mg/kg/injection, schedule: Q04DX002 (ip), vehicle: Klucel (hydroxypropylcellulose) (HPC)
  T/C: 101 % of control
dose: 400.0 mg/kg/injection, schedule: Q04DX002 (ip), vehicle: Klucel (hydroxypropylcellulose) (HPC)
  T/C: 87 % of control

## OCCc1cccc(O)c1
dose: 50.0 mg/kg/injection, schedule: Q01DX001 (ip), vehicle: saline
  T/C: 102 % of control
[16]
  T/C: 93 % of control
[17]
  T/C: 86 % of control
[18]
  T/C: 100 % of control

## COc1ccc(Cl)cc1NC(=O)Nc1cc(C)ccc1Cl
[7]
  T/C: 101 % of control
[2]
  T/C: 90 % of control
[8]
  T/C: 110 % of control
[4]
  T/C: 95 % of control
[13]
  T/C: 116 % of control
[6]
  T/C: 95 % of control

## CN(C)CCCN=NNc1nc[nH]c1C(N)=O
[1]
  T/C: 95 % of control
[2]
  T/C: 108 % of control
[3]
  T/C: 91 % of control
[4]
  T/C: 92 % of control
[5]
  T/C: 95 % of control

## N#CC(CCCc1ccccc1)c1ccc(N)cc1 (centres undefined)
[1]
  T/C: 91 % of control
[3]
  T/C: 94 % of control
[5]
  T/C: 103 % of control

## CCC(C)C(CN)(CCN(C)C)Cc1cccc2ccccc12 (centres undefined)
[10]
  T/C: 93 % of control
[11]
  T/C: 96 % of control
[12]
  T/C: 101 % of control

## CC1=Cc2ccc(C)cc2C(=O)C1=O
dose: 6.25 mg/kg/injection, schedule: Q04DX003 (ip), vehicle: saline with Tween-80
  T/C: 94 % of control
